Laboratory results published in patent US20190185518A9, “WARHEAD-CONTAINING PEPTIDOMIMETIC MACROCYCLES AS MODULATORS OF BFL-1” (AILERON Therapeutics, Inc., priority 2017, published 2019).
Read-outs that look alike come from different tables or passages of the source. Positions of bridges follow the written chain, without caps; N, C: chain ends. Non-standard residues stand in square brackets, D forms with d. Residues, ends and D or L forms follow the SMILES beside them. R8 = C=CCCCCCC[C@@](C)(N)C(=O)O; Cit = NC(=O)NCCC[C@H](N)C(=O)O; S5 = C=CCCC[C@](C)(N)C(=O)O; Aib = CC(C)(N)C(=O)O

What was measured:
[1] = system: Mcl-1, Bcl-xL, Bcl-2; assay: BCL-2 family selectivity profile; type: binding
Source text: The binding spectrum of stapled BIM BH3 peptides were tuned for BCL-2 family selectivity. […] ABT-199 is venetoclax, and † represents values reported in the literature.

[2] = target: Bcl-2 (Homo sapiens, UniProt P10415); assay: Ki determination for Bcl-2 (BCL-2 family binding spectrum); details: TABLE 6; read-out: Bcl-2 Ki
Sequence of Bcl-2 (P10415 whole entry, species assumed): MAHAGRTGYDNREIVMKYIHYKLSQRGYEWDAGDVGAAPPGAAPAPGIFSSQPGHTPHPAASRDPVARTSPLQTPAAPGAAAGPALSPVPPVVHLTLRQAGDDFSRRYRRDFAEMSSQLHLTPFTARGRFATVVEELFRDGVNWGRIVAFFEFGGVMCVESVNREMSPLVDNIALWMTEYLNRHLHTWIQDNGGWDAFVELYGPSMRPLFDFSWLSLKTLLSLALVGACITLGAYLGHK
Procedure, shortened: (§1)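 Competitive fluorescence polarization: compounds (1 nM–1 mM) with 25 nM fluoresceinated peptidomimetic macrocycle and 50 nM protein in 140 mM NaCl, 50 mM Tris-HCl pH 7.4, 30 min at room temperature. Constants from nonlinear regression.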

[3] = target: Mcl-1 (Homo sapiens, UniProt Q07820); assay: Ki determination for Mcl-1 (BCL-2 family binding spectrum)
Sequence of Mcl-1 (Q07820 whole entry, species assumed): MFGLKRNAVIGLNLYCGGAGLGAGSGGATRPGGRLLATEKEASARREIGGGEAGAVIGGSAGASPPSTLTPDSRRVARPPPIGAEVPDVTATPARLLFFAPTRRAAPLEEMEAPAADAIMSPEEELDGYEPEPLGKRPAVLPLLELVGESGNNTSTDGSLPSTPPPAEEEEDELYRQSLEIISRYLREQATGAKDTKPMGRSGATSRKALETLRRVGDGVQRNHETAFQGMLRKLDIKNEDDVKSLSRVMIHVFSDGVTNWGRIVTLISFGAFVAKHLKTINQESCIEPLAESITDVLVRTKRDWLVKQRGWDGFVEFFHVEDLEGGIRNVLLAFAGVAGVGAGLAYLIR
Procedure, shortened: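 Competitive fluorescence polarization assay in which compounds displace a fluoresceinated peptidomimetic macrocycle tracer from Mcl-1. Affinity constants were obtained by nonlinear regression.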

[4] = target: Bcl-xL (Homo sapiens, UniProt Q07817); assay: Ki determination for Bcl-xL (BCL-2 family binding spectrum); details: TABLE 6; read-out: Bcl-xL Ki
Sequence of Bcl-xL (Q07817 whole entry, species assumed): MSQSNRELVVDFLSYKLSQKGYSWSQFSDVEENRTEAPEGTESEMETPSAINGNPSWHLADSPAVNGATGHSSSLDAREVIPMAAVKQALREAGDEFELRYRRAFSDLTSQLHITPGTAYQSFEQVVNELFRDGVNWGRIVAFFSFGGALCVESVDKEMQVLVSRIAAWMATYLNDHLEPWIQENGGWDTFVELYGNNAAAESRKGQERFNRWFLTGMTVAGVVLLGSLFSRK
Procedure, shortened: as §1

[5] = system: SK-MEL-28 melanoma cells; assay: Cell viability (CellTiter-Glo), SK-MEL-28; type: cell-based; details: 40 μM
Description: (§2) Cancer cells were cultured using a standard culture medium containing 10% fetal bovine serum (FBS) and penicillin-streptomycin (A375P: DMEM; SK-MEL-2, SK-MEL-28: EMEM). Cells were plated in 96-well plates (5×10^3 cells per well) and, after overnight incubation, treated with the indicated concentrations of Stapled Peptides in the corresponding medium supplemented with 5% FBS for the indicated durations. Cell viability and caspase-3/7 activation was measured using CellTiter-Glo and Caspase-Glo 3/7 chemiluminescence reagents (Promega), respectively. Luminescence was detected by a microplate reader (Spectramax M5, Molecular Devices).

[6] = system: A375-P melanoma cells; assay: Cell viability (CellTiter-Glo), A375-P; type: cell-based; details: 40 μM
Description: as §2

[7] = system: A375-P melanoma cells; assay: Caspase-3/7 activation (Caspase-Glo 3/7), A375-P; type: cell-based; details: A375-P cells, 40 μM
Description: as §2

[8] = system: SK-MEL-2 melanoma cells; assay: Cell viability (CellTiter-Glo), SK-MEL-2; type: cell-based; details: 40 μM
Description: as §2

[9] = system: SK-MEL-2 melanoma cells; assay: Caspase-3/7 activation (Caspase-Glo 3/7), SK-MEL-2; type: cell-based; details: SK-MEL-2 cells, 40 μM
Description: as §2

[10] = system: ABT-199 resistant Burkitt lymphoma Raji cells; assay: WST-1 anti-proliferative activity in Raji cells; type: cell-based, Human; details: TABLE 9; Raji cell proliferation
Source text: WST-1 is a cell proliferation reagent that is used in colorimetric assays designed to measure the relative proliferation rates of cells in culture. The assay is based on the conversion of the tetrazolium salt WST-1 into a colored dye by mitochondrial dehydrogenase enzymes. The soluble salt is released into the media. Within a given time period, the reaction produces a color change that is directly proportional to the amount of mitochondrial dehydrogenase in a culture. The WST-1 assay measures the net metabolic activity of cells.

[11] = system: SK-MEL-28 melanoma cells; assay: Caspase-3/7 activation (Caspase-Glo 3/7), SK-MEL-28; type: cell-based; details: SK-MEL-28 cells, 40 μM
Description: as §2

[12] = target: T1, MCL-1/BAK protein-protein interaction (Homo sapiens, UniProt Q07820); assay: MCL-1 displacement study (BAK FRET signal); type: cell-based; details: 10 μM and 20 μM
T1 construct: host or cells: Raji
T1 sequence (Q07820 whole entry): as the sequence (Q07820 whole entry, species assumed) above
Description: BIM peptidomimetic macrocycles were tested for displacement of MCL-1 from a BAK fluorescence resonance energy transfer (FRET) peptide.
FIG. 19 compares normalized FRET signals of samples to determine the samples' effects in disrupting MCL-1/BAK protein-protein interactions.

SMILES	Ki [2] [nM]	Ki ([3]; TABLE 6, read-out: Mcl-1 Ki) [nM]	Ki [4] [nM]	Profile ([1]; TABLE 6)	other results
CC[C@H](C)[C@H](NC(C)=O)C(=O)N[C@@H](Cc1c[nH]c2ccccc12)C(=O)N[C@H](C(=O)N[C@@H](C)C(=O)N[C@@H](C)C(=O)N[C@@H](C)C(=O)N[C@@H](CC(C)C)C(=O)N[C@@H](CCCNC(=N)N)C(=O)N[C@]1(C)CCCCCCC=CCCC[C@@](C)(C(=O)N[C@@H](Cc2ccc(O)cc2)C(=O)N[C@@H](Cc2ccc(O)cc2)C(=O)N[C@@H](C)C(N)=O)NC(=O)[C@H](CC(N)=O)NC(=O)[C@H](Cc2ccccc2)NC(=O)[C@H](CCC(=O)O)NC(=O)[C@H](CC(=O)O)NC(=O)CNC(=O)[C@H]([C@@H](C)CC)NC1=O)[C@@H](C)CC [compound 3] (Ac-IWIAAALR[R8]IGDEFN[S5]YYA-NH2; staple 9-16)	6	1	1	Pan-selective	
CC[C@H](C)[C@H](NC(C)=O)C(=O)N[C@@H](Cc1c[nH]c2ccccc12)C(=O)N[C@H](C(=O)N[C@@H](C)C(=O)N[C@@H](C)C(=O)N[C@@H](C)C(=O)N[C@@H](CC(C)C)C(=O)N[C@@H](CCCNC(=N)N)C(=O)N[C@]1(C)CCCCCCC=CCCC[C@@](C)(C(=O)N[C@@H](Cc2ccc(O)cc2)C(=O)N[C@@H](Cc2ccc(O)cc2)C(=O)N[C@@H](C)C(N)=O)NC(=O)[C@H](CC(N)=O)NC(=O)[C@H](Cc2ccccc2)NC(=O)[C@H](CCC(N)=O)NC(=O)[C@H](CC(=O)O)NC(=O)CNC(=O)[C@H]([C@@H](C)CC)NC1=O)[C@@H](C)CC [compound 4] (Ac-IWIAAALR[R8]IGDQFN[S5]YYA-NH2; staple 9-16)	22	6	4	Pan-selective	
CC[C@H](C)[C@H](NC(C)=O)C(=O)N[C@@H](Cc1c[nH]c2ccccc12)C(=O)N[C@H](C(=O)N[C@@H](C)C(=O)N[C@@H](CCC(N)=O)C(=O)N[C@@H](CCC(=O)O)C(=O)N[C@@H](CC(C)C)C(=O)N[C@@H](CCCNC(=N)N)C(=O)N[C@@]1(C)CCCC=CCCC[C@@](C)(C(=O)N[C@@H](Cc2ccccc2)C(=O)N[C@@H](CC(N)=O)C(=O)N[C@@H](C)C(=O)N[C@@H](Cc2ccc(O)cc2)C(=O)N[C@@H](Cc2ccc(O)cc2)C(=O)N[C@@H](C)C(=O)N[C@@H](CCCNC(=N)N)C(=O)N[C@@H](CCCNC(=N)N)C(N)=O)NC(=O)[C@H](CC(=O)O)NC(=O)CNC(=O)[C@H]([C@@H](C)CC)NC1=O)[C@@H](C)CC [BIM SAHBA1]					Profile ([1]; TABLE 8): Pan-selective; % cell viability ([5]; SK-MEL-28, 5% serum): had no effect on % viability; proliferation ([5]; SK-MEL-28 cells): neither BIM SAHBA1 nor Aileron peptide 1 affected proliferation; proliferation ([6]; A375-P cells): neither BIM SAHBA1 nor Aileron peptide 1 affected proliferation; % cell viability ([6]; A375-P, 5% serum): had no effect on % viability; apoptosis induction [7]: neither BIM SAHBA1 nor Aileron peptide 1 affected proliferation and apoptosis induction; % cell viability ([8]; SK-MEL-2, 5% serum): had no effect on % viability; proliferation ([8]; SK-MEL-2 cells): neither BIM SAHBA1 nor Aileron peptide 1 affected proliferation; apoptosis induction [9]: neither BIM SAHBA1 nor Aileron peptide 1 affected proliferation and apoptosis induction; IC50 [10]: 23.7 µM; apoptosis induction [11]: neither BIM SAHBA1 nor Aileron peptide 1 affected proliferation and apoptosis induction
CC[C@H](C)[C@H](NC(=O)[C@H](Cc1c[nH]c2ccccc12)NC(=O)[C@H](CCCNC(=N)N)NC(C)=O)C(=O)N[C@@H](C)C(=O)N[C@@H](CCC(N)=O)C(=O)N[C@@H](C)C(=O)N[C@@H](CC(C)C)C(=O)N[C@@H](CCCNC(=N)N)C(=O)N[C@@]1(C)CCCC=CCCC[C@@](C)(C(=O)N[C@@H](CC(C)C)C(=O)N[C@@H](CC(N)=O)C(=O)NC(C)(C)C(=O)N[C@@H](Cc2ccccc2)C(=O)N[C@@H](Cc2ccc(O)cc2)C(=O)N[C@@H](C)C(=O)N[C@@H](Cc2c[nH]cn2)C(=O)N[C@@H](Cc2c[nH]cn2)C(N)=O)NC(=O)[C@H](CC(=O)O)NC(=O)CNC(=O)[C@H]([C@@H](C)CC)NC1=O [Peptide #14] (Ac-RWIAQALR[S5]IGD[S5]LN[Aib]FYAHH-NH2; staple 9-13)					Ki of MCL-1 compared with Ki of BCL-xL or BCL-2 ([1]; TABLE 7 assay): drastically lower; Profile ([1]; TABLE 8): Mcl-1 selective; disrupting the MCL-1/BAK protein-protein interaction (normalized FRET signal) [12]: highly effective; Ki ([3]; TABLE 7, read-out: MCL-1 Ki): 11 nM

Continued, in another order:

Ki [2] [nM]	Ki ([3]; TABLE 6, read-out: Mcl-1 Ki) [nM]	Ki [4] [nM]	SMILES	Profile ([1]; TABLE 6)	other results
88.2	1.7	28.8	CC[C@H](C)[C@H](NC(C)=O)C(=O)N[C@@H](Cc1c[nH]c2ccccc12)C(=O)N[C@H](C(=O)N[C@@H](C)C(=O)N[C@@H](CCC(N)=O)C(=O)N[C@@H](C)C(=O)N[C@@H](CC(C)C)C(=O)N[C@@H](CCCNC(N)=O)C(=O)N[C@]1(C)CCCCCCC=CCCC[C@@](C)(C(=O)N[C@@H](Cc2ccc(O)cc2)C(=O)N[C@@H](Cc2ccc(O)cc2)C(=O)N[C@@H](C)C(N)=O)NC(=O)[C@H](CC(N)=O)NC(=O)[C@H](Cc2ccccc2)NC(=O)[C@H](CCC(N)=O)NC(=O)[C@H](CC(=O)O)NC(=O)CNC(=O)[C@H]([C@@H](C)CC)NC1=O)[C@@H](C)CC [compound 6] (Ac-IWIAQAL[Cit][R8]IGDQFN[S5]YYA-NH2; staple 9-16)	Mcl-1 selective	
212	7.5	110	CC[C@H](C)[C@H](NC(C)=O)C(=O)N[C@@H](Cc1c[nH]c2ccccc12)C(=O)N[C@H](C(=O)N[C@@H](C)C(=O)N[C@@H](CCC(N)=O)C(=O)N[C@@H](C)C(=O)N[C@@H](CC(C)C)C(=O)N[C@@H](CCCNC(N)=O)C(=O)N[C@]1(C)CCCCCCC=CCCC[C@@](C)(C(=O)N[C@@H](Cc2ccc(O)cc2)C(=O)N[C@@H](Cc2ccc(O)cc2)C(=O)N[C@@H](C)C(N)=O)NC(=O)[C@H](CC(N)=O)NC(=O)[C@H](Cc2ccccc2)NC(=O)[C@H](C)NC(=O)[C@H](CC(=O)O)NC(=O)CNC(=O)[C@H]([C@@H](C)CC)NC1=O)[C@@H](C)CC [compound 5] (Ac-IWIAQAL[Cit][R8]IGDAFN[S5]YYA-NH2; staple 9-16)	Mcl-1 selective	
67	5.2	12	CC[C@H](C)[C@H](NC(C)=O)C(=O)N[C@@H](Cc1c[nH]c2ccccc12)C(=O)N[C@H](C(=O)N[C@@H](C)C(=O)N[C@@H](CCC(N)=O)C(=O)N[C@@H](C)C(=O)N[C@@H](CC(C)C)C(=O)N[C@@H](CCCNC(=N)N)C(=O)N[C@]1(C)CCCCCCC=CCCC[C@@](C)(C(=O)N[C@@H](Cc2ccc(O)cc2)C(=O)N[C@@H](Cc2ccc(O)cc2)C(=O)N[C@@H](C)C(N)=O)NC(=O)[C@H](CC(N)=O)NC(=O)[C@H](Cc2ccccc2)NC(=O)[C@H](CCC(N)=O)NC(=O)[C@H](CC(=O)O)NC(=O)CNC(=O)[C@H]([C@@H](C)CC)NC1=O)[C@@H](C)CC [compound 2] (Ac-IWIAQALR[R8]IGDQFN[S5]YYA-NH2; staple 9-16)	Pan-selective	
